US20220160713A1, “SELECTIVE INHIBITOR OF PROTEIN ARGININE […] 5 (PRMT5)” (PRELUDE THERAPEUTICS, INCORPORATED, priority 2019, published 2022)
Converted amounts (≈) assume the structure as drawn. “Also recorded” adds a separate entry of the source.

What was measured:
[1] = Gravimetric solubility estimate in water; assay type: physicochemical; conditions: thermodynamic from solid
[2] = Dynamic vapor sorption (DVS); assay type: physicochemical
Description: The dynamic vapor sorption experiments can be done with a VTI SGA-Cx100 Symmetric Vapor Sorption Analyzer. The moisture uptake profile is completed in three cycles of 10% RH increments with adsorption from 5% to 95% RH, followed by desorption of 10% increments from 95% to 5%. The equilibration criteria are 0.0050 wt % in 5 minutes with a maximum equilibration time of 180 minutes. All adsorption and desorption are performed at room temperature (21-22° C.). No pre-drying step is applied for the samples.

Granta-519 cells = experiment: Cell proliferation assay on Granta-519 cells (CCK-8); assay type: cell-based; conditions: Homo sapiens, 240 h; Granta-519 cell line, day 10; read-out: Prolif. IC50
Description: Granta-519 cells are maintained in PRMI 1640 (Corning Cellgro, Catalog #: 10-040-CV) medium supplemented with 10% v/v FBS (GE Healthcare, Catalog #: SH30910.03). Formula I is dissolved in DMSO to make 10 mM stocks and stored at −20° C. Nine-point, 3-fold serial dilutions are made with DMSO with top concentration at 1 mM (working stocks).
On day of experiment, compound working stocks are further diluted at 1:50 with fresh medium in 96 well plate, and 10 μL of diluted drugs are added to a new 96 well plate for proliferation assay. Cells growing at exponential phase are spun down at 1500 rpm for 4 min and resuspend in fresh medium to reach a density of 0.5×10^6 cells/ml. 200 ul of cells are added to 96 well plate containing diluted drugs and incubated for 3 days. DMSO is used a vehicle control.
One day 3, 10 μL of Cell Counting Kit-8 (CCK-8, Jojindo, CK04-13) solution is added to a new 96 well plate. […] Plates are incubated in CO2 incubator for 2 hours and OD450 values are measured with a microplate reader (iMark microplate reader, Bio-Rad). […]
Percentage of viable cells, relative to DMSO vehicle control, is calculated and plotted in Graphpad Prism ([Inhibitor] vs. normalized response−Variable slope) to determine proliferation IC50 values on day 10.

[3] = tested on: Symmetric Di-Methyl Arginine (sDMA) marks in Granta-519 cell line; experiment: Cellular sDMA western blot in Granta cells; assay type: cell-based; conditions: Homo sapiens, 72 h, 3 days
[4] = tested on: Granta-519 mouse xenograft; experiment: Tumor growth inhibition in Granta-519 mouse xenograft model; assay type: in vivo
Description: (§1) Granta-519 cells was maintained in DMEM medium supplemented with 10% fetal bovine serum and 2 mM L-Glutamine at 37° C. in an atmosphere of 5% CO2 in air. Cells in exponential growth phase were harvested and 1×10^7 cells in 0.1 mL of PBS with Matrigel (1:1) were injected subcutaneously at the right lower flank region of each mouse for tumor development. The treatments were started when the mean tumor size reaches approximately 300-400 mm^3. […] Formula I or vehicle (0.5% Na CMC+0.5% Tween80, suspension) were administered orally (QD for Formula I, QD for vehicle) at a dose of 30 mg/kg and 50 mg/kg for 19 and 16 days, respectively. Body weights and tumor size were measured every 3 to 4 days after randomization. Animals were euthanized 12 hours after last dosing, and blood and tumor samples were collected for analysis.

[5] = tested on: sDMA in Granta-519 tumor samples; experiment: sDMA levels in tumor samples of Granta-519 mouse xenograft (western blot); assay type: in vivo
Description: as §1
To measure sDMA levels in tumor samples, tumors from each mouse were weighted and homogenized in RIPA buffer supplemented with protease inhibitor (cOmplete™, EDTA-free Protease Inhibitor Cocktail, Roche). Lysate were centrifuged at 14,000 rpm for 30 min at 4° C. to remove debris. Total protein concentrations of lysate were determined by BCA assay (ThermoFisher Scientific, Catalog #: 23225). Equal amount of total proteins from each tumor were separated on SDS-PAGE gel, and sDMA levels were determined by WB as described previously.

[6] = Rat non-crossover PK study; assay type: in vivo, rat (SD, male, non-fasted); conditions: 1 mg/kg p.o.
Description: In a rat (SD, male, non-fasted) non-crossover PK study, the compound of Formula I was dosed at 1 mg/kg (DMA: 20% HPBCD=5:95, solution) via i.v. administration (N=3) and 1 mg/kg (0.5% Na CMC+0.5% Tween80, solution) via oral gauge (p.o.) (N=3).

physchem = conditions: 25 °C, thermodynamic from solid
Description: Compounds are first dispersed in freshly prepared FaSSIF (http://biorelevant.com/site_media/upload/documents/How_to_make_FaSSIF_FeSSIF_and_FaSSGF.pdf) buffer in 1 mg/mL respectively, and the standard samples are prepared by preparing 1 mg/mL of test compounds in DMSO. The compounds are then sufficient mixed by vortex mixer for 30 sec, and agitated at 25° C. using 300 rpm form 4 hour in thermo mixer. After incubation, the prepared samples are centrifuged at 10000 rpm for 10 min to remove the undissolved solid, the resulting supernatants are applied to HPLC. The actual concentrations of the compounds are evaluated by measuring the peak area, and the solubility (S) of compounds is calculated according to following equation:
S=Csmp=Cstd*(Asmp/Astd)*(Vstd/Vsmp)
Where C is the sample concentration in μg/mL, A is the peak area, and V is the injection volume.

[7] = room temperature, normal humidity range (40-50% RH)

In the case of `C[C@@]1(O)[C@@H]([C@H](O)c2ccc(Cl)c(Cl)c2)O[C@@H](n2ccc3c(N)ncnc32)[C@@H]1O.O=C(O)/C=C\C(=O)O` [Formula IA, (2R,3S,4R,5R)-5-(4-amino-7H-pyrrolo[2,3-d]pyrimidin-7-yl)-2-((R)-(3,4-dichlorophenyl)(hydroxy)methyl)-3-methyltetrahydrofuran-3,4-diol, maleate salt], the solubility [1] is reported as roughly 1100 µg/mL.
With `C[C@@]1(O)[C@@H]([C@H](O)c2ccc(Cl)c(Cl)c2)O[C@@H](n2ccc3c(N)ncnc32)[C@@H]1O.Cl` [Formula IB, Form III] the “change of form, XRPD before and after DVS” value (from here on “change of form”) [2] was “no change in form”, the “water adsorbed (adsorption/desorption isotherms)” value ([2]; at about 95% humidity) was roughly 2.8% and the “water adsorbed (adsorption/desorption isotherms)” value [2, 7] was roughly 1%.
Work on `C[C@@]1(O)[C@@H]([C@H](O)c2ccc(Cl)c(Cl)c2)O[C@@H](n2ccc3c(N)ncnc32)[C@@H]1O` [Formula I, (2R,3S,4R,5R)-5-(4-amino-7H-pyrrolo[2,3-d]pyrimidin-7-yl)-2-((R)-(3,4-dichlorophenyl)(hydroxy)methyl)-3-methyltetrahydrofuran-3,4-diol] yielded an IC50 (Granta-519 cells) of 75 nM, an IC50 [3] of 31 nM and a body weight loss ([4]; 30 mg/kg orally QD, 19 days) of 1%. It also gave a tumor growth inhibition ([4]; 30 mg/kg orally QD, 19 days) of 46%, a body weight loss ([4]; 50 mg/kg orally QD, 16 days) of 8% and a tumor growth inhibition ([4]; 50 mg/kg orally QD, 16 days) of 79%. For the same compound, the “inhibition of sDMA in tumor” value ([5]; 30 mg/kg orally QD) was greater than 90%, the sDMA in tumor ([5]; 50 mg/kg orally QD) was “no detectable sDMA” and the “average dose normalized AUC” value [6] was 3246 ng·kg·h/mL/mg. It also gave a bioavailability ([6]; male, SD, blood, po) greater than 100%.
Work on `C[C@@]1(O)[C@@H]([C@H](O)c2ccc(Cl)c(Cl)c2)O[C@@H](n2ccc3c(N)ncnc32)[C@@H]1O.Cl` [Formula IB, (2R,3S,4R,5R)-5-(4-amino-7H-pyrrolo[2,3-d]pyrimidin-7-yl)-2-((R)-(3,4-dichlorophenyl)(hydroxy)methyl)-3-methyltetrahydrofuran-3,4-diol, hydrochloride salt] yielded a solubility [1] of roughly 800 µg/mL.
Work on `O=C1C(O)=C([C@H]2CC[C@H](c3ccc(Cl)cc3)CC2)C(=O)c2ccccc21` [Atovaquone] yielded a solubility at 4 h (physchem; fassif) of less than 2 µg/mL.
With `C[C@@]1(O)[C@@H]([C@H](O)c2ccc(Cl)c(Cl)c2)O[C@@H](n2ccc3c(N)ncnc32)[C@@H]1O.Cl` [Formula IB, Form I] the “change of form” value [2] was “no change in Form”, the “water adsorbed (adsorption/desorption isotherms)” value ([2]; at about 95% humidity) was roughly 0.5% and the “water adsorbed (adsorption/desorption isotherms)” value [2, 7] was roughly 0.1%.
For `C[C@@]1(O)[C@@H]([C@H](O)c2ccc(Cl)c(Cl)c2)O[C@@H](n2ccc3c(N)ncnc32)[C@@H]1O.Cl` [Formula IB, Form II], the “change of form” value [2] was “no change in Form”, the “water adsorbed (adsorption/desorption isotherms)” value ([2]; at about 95% humidity) was roughly 6% and the “water adsorbed (adsorption/desorption isotherms)” value [2, 7] was roughly 3%.
`CC(=O)CC(c1ccccc1)c1c(O)c2ccccc2oc1=O` (stereo not shown) [Warfarin] gave a solubility at 4 h (physchem) of 10 to 25 µg/mL (≈ 32.4 to 81.1 µM).
In the case of `C[C@@]1(O)[C@@H]([C@H](O)c2ccc(Cl)c(Cl)c2)O[C@@H](n2ccc3c(N)ncnc32)[C@@H]1O` [Formula I, Form I, (2R,3S,4R,5R)-5-(4-amino-7H-pyrrolo[2,3-d]pyrimidin-7-yl)-2-((R)-(3,4-dichlorophenyl)(hydroxy)methyl)-3-methyltetrahydrofuran-3,4-diol], the “change of form” value [2] is reported as “did not change the polymorphic form; also recorded: no change in form”, the “water adsorbed (adsorption/desorption isotherms)” value ([2]; at about 95% humidity) is reported as roughly 0.5% and the “water adsorbed (adsorption/desorption isotherms)” value [2, 7] is reported as roughly 0.8%.
`C[C@@]1(O)[C@@H]([C@H](O)c2ccc(Cl)c(Cl)c2)O[C@@H](n2ccc3c(N)ncnc32)[C@@H]1O.O=P(O)(O)O` [Formula ID, (2R,3S,4R,5R)-5-(4-amino-7H-pyrrolo[2,3-d]pyrimidin-7-yl)-2-((R)-(3,4-dichlorophenyl)(hydroxy)methyl)-3-methyltetrahydrofuran-3,4-diol, phosphate salt] gave a solubility [1] of less than 300 µg/mL.
`C[C@@]1(O)[C@@H]([C@H](O)c2ccc(Cl)c(Cl)c2)O[C@@H](n2ccc3c(N)ncnc32)[C@@H]1O.O=C(O)C(=O)O` [Formula IC, (2R,3S,4R,5R)-5-(4-amino-7H-pyrrolo[2,3-d]pyrimidin-7-yl)-2-((R)-(3,4-dichlorophenyl)(hydroxy)methyl)-3-methyltetrahydrofuran-3,4-diol, oxalate salt] showed a solubility [1] of less than 300 µg/mL.
